Assay results taken from patent publication US11986471B2, “Compounds and methods of use” (Tango Therapeutics, Inc., priority 2018, dated 2024).

Tests used:
PRMT5 [1] = target: T1, PRMT5 (Homo sapiens, UniProt O14744); assay: PRMT5 IC50 assay in the presence of SAM as cofactor; format: biochemical
T1 construct: purchased Viva (custom protein)
Procedure, shortened: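 IC50 values were measured against human PRMT5 with SAM, with MTA, or with no cofactor. Ki was derived from IC50 as Ki=IC50/1.5 with SAM and Ki=IC50/13.5 with MTA, and the Ki(SAM)/Ki(MTA) ratio was then taken.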

PRMT5 [2] = target: T1, PRMT5; assay: PRMT5 IC50 assay with no cofactor; format: biochemical
Procedure, shortened: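 Enzyme: human PRMT5. Conditions: plus SAM, plus MTA, or cofactor-free. Output: IC50 (μM); Ki via IC50/1.5 (SAM) or IC50/13.5 (MTA).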

HAP1 MTAP-intact = assay: SDMA in-cell western assay, HAP1 MTAP-intact cell line; format: cell-based; conditions: Homo sapiens
Procedure, shortened: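 Symmetric dimethylarginine (SDMA) levels were measured by in-cell western in an isogenic HAP1 pair, one expressing endogenous MTAP and one MTAP-null, and IC50 values were derived for each line. Compounds whose IC50 ratio between the lines is 3-fold or more are classed as MTAP-selective.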

HAP1 MTAP-deleted = assay: SDMA in-cell western assay, HAP1 MTAP-deleted cell line; format: cell-based; conditions: for IC50: Homo sapiens, HAP1 MTAP-deleted cell line; for MTAP Intact/Deleted Ratio: IC50 ratio HAP1 MTAP-intact / HAP1 MTAP-deleted
Procedure, shortened: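 Symmetric dimethylarginine (SDMA) levels were measured by in-cell western in MTAP-null HAP1 cells, one half of an MTAP-isogenic pair whose partner line expresses endogenous MTAP. Compound potency is reported as IC50.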

PRMT5 [3] = target: T1, PRMT5; assay: PRMT5 IC50 assay in the presence of MTA as cofactor; format: biochemical; conditions: for IC50: PRMT5, MTA as cofactor; for SAM/MTA Ratio: ratio between the Ki in the presence of SAM and the Ki in the presence of MTA
Procedure, shortened: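 Ki conversion: SAM arm, Ki=IC50/1.5; MTA arm, Ki=IC50/13.5. No-cofactor arm reported as IC50 only. Selectivity expressed as Ki(SAM)/Ki(MTA).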

T1 sequence (O14744 whole entry): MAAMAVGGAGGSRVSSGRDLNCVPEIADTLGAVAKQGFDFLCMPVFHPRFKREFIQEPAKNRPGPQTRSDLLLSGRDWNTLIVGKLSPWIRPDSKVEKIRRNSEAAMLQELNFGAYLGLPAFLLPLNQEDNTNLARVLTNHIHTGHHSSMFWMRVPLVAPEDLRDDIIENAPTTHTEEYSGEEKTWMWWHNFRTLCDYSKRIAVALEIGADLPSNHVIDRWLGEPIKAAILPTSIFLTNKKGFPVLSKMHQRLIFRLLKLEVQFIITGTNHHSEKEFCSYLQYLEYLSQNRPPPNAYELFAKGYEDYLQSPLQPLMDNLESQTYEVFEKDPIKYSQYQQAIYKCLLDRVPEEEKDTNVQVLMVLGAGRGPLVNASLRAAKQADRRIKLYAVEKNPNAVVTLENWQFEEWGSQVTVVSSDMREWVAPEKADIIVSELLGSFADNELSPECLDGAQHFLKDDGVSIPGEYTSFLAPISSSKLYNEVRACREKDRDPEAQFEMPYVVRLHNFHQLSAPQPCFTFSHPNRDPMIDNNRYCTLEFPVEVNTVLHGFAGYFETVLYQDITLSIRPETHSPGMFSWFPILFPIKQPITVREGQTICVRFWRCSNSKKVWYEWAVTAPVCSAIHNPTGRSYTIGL
T1 sequence (Q9BQA1 whole entry partner): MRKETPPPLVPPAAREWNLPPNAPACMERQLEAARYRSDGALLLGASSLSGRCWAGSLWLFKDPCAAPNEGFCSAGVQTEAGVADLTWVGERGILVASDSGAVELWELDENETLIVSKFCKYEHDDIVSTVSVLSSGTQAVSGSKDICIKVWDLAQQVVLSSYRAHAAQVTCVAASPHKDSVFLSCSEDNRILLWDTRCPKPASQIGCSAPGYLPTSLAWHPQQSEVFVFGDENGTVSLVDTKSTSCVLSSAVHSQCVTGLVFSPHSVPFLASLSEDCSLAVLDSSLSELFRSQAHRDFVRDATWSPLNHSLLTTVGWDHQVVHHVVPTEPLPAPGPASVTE

SMILES | IC50 (PRMT5 [1]) [nM] | IC50 (PRMT5 [2]) [nM] | IC50 (HAP1 MTAP-intact) [nM] | IC50 (HAP1 MTAP-deleted) [nM] | MTAP Intact/Deleted Ratio (HAP1 MTAP-deleted) | IC50 (PRMT5 [3]) [nM] | SAM/MTA Ratio (PRMT5 [3])
COc1cc(C(=O)NC[C@H](O)CN2CCc3c(ccc(OCc4ocnc4C)c3C)C2)cc(NC2CCN(C(C)=O)CC2)n1 [Compound 604, (S)-2-((1-acetylpiperidin-4-yl)amino)-N-(2-hydroxy-3-[5-methyl-6-((4-methyloxazol-5-yl)methoxy)-3,4-dihydroisoquinolin-2(1H)-yl)propyl)-6-methoxyisonicotinamide] | 50 to 500 | 500 to 5000 | 1000 to 10000 | < 1000 | A* (an IC50 ratio greater than or equal to 10 fold between the IC50 in the HAP1 MTAP-intact cell line and the HAP1 MTAP-deleted cell line) | 50 to 500 | A (a Ki ratio greater than or equal to 10 fold between the Ki in the presence of SAM and the Ki in the presence of MTA)
CC(=O)N(C)[C@H]1CC[C@H](Nc2cc(C(=O)NC[C@H](O)CN3CCc4c(ccc(OCc5cnco5)c4C)C3)ncn2)CC1 [Compound 605, N-[(2S)-2-hydroxy-3-{5-methyl-6-[(1,3-oxazol-5-yl)methoxy]-1,2,3,4-tetrahydroisoquinolin-2-yl}propyl]-6-{[(1r,4r)-4-(N-methylacetamido)cyclohexyl]amino}pyrimidine-4-carboxamide] | 50 to 500 | ≥ 5000 | ≥ 10000 | 1000 to 10000 | B* (an IC50 ratio greater than or equal to 3 fold but lower than 10 fold between the IC50 in the HAP1 MTAP-intact cell line and the HAP1 MTAP-deleted cell line) | 50 to 500 | A (a Ki ratio greater than or equal to 10 fold between the Ki in the presence of SAM and the Ki in the presence of MTA)
CC(=O)N1CCC(Nc2cncc(C(=O)NC[C@H](O)CN3CCc4c(ccc(OCc5cnco5)c4C)C3)c2)CC1 [Compound 606, 5-[(1-acetylpiperidin-4-yl)amino]-N-[(2S)-2-hydroxy-3-{5-methyl-6-[(1,3-oxazol-5-yl)methoxy]-1,2,3,4-tetrahydroisoquinolin-2-yl}propyl]pyridine-3-carboxamide] | 50 to 500 | 500 to 5000 | ≥ 10000 | 1000 to 10000 | C* (an IC50 ratio of less than 3 fold between the IC50 in the HAP1 MTAP-intact cell line and the HAP1 MTAP-deleted cell line) | 50 to 500 | A (a Ki ratio greater than or equal to 10 fold between the Ki in the presence of SAM and the Ki in the presence of MTA)
Cc1ncoc1COc1ccc2c(c1)CCN(C[C@@H](O)CNC(=O)c1cc(NC3CCC3)ncc1Cl)C2 [Compound 607, 5-chloro-2-(cyclobutylamino)-N-[(2S)-2-hydroxy-3-[6-[(4-methyloxazol-5-yl)methoxy]-3,4-dihydro-1H-isoquinolin-2-yl]propyl]pyridine-4-carboxamide] | 50 to 500 | ≥ 5000 | < 1000 | < 1000 | C* (an IC50 ratio of less than 3 fold between the IC50 in the HAP1 MTAP-intact cell line and the HAP1 MTAP-deleted cell line) | 50 to 500 | A (a Ki ratio greater than or equal to 10 fold between the Ki in the presence of SAM and the Ki in the presence of MTA)
Cc1ncoc1COc1ccc2c(c1)CCN(C[C@@H](O)CNC(=O)c1ccnc(NC3CC4(CCC4)C3)c1)C2 [Compound 609, (S)—N-(2-hydroxy-3-(6-((4-methyloxazol-5-yl)methoxy)-3,4-dihydroisoquinolin-2(1H)-yl)propyl)-2-(spiro[3.3]heptan-2-ylamino)isonicotinamide] | 500 to 5000 | 500 to 5000 | 1000 to 10000 | < 1000 | B* (an IC50 ratio greater than or equal to 3 fold but lower than 10 fold between the IC50 in the HAP1 MTAP-intact cell line and the HAP1 MTAP-deleted cell line) | < 50 | A (a Ki ratio greater than or equal to 10 fold between the Ki in the presence of SAM and the Ki in the presence of MTA)
Cc1ncoc1COc1ccc2c(c1)CCN(C[C@@H](O)CNC(=O)c1cc(NC3CC4(CCC4)C3)nc(N3CCN(C(=O)C4CC4)CC3)c1)C2 [Compound 610, (S)-2-(4-(cyclopropanecarbonyl)piperazin-1-yl)-N-(2-hydroxy-3-(6-((4-methyloxazol-5-yl)methoxy)-3,4-dihydroisoquinolin-2(1H)-yl)propyl)-6-(spiro[3.3]heptan-2-ylamino)isonicotinamide] | 50 to 500 | 50 to 500 | 1000 to 10000 | 1000 to 10000 | C* (an IC50 ratio of less than 3 fold between the IC50 in the HAP1 MTAP-intact cell line and the HAP1 MTAP-deleted cell line) | < 50 | A (a Ki ratio greater than or equal to 10 fold between the Ki in the presence of SAM and the Ki in the presence of MTA)
Cc1ncoc1COc1ccc2c(c1)CCN(C[C@@H](O)CNC(=O)c1cc(NC3CC4(CC4)C3)nc(N3CCN(C(=O)C4CC4)CC3)c1)C2 [Compound 611, (S)-2-(4-(cyclopropanecarbonyl)piperazin-1-yl)-N-(2-hydroxy-3-(6-((4-methyloxazol-5-yl)methoxy)-3,4-dihydroisoquinolin-2(1H)-yl)propyl)-6-(spiro[2.3]hexan-5-ylamino)isonicotinamide] | 50 to 500 | 50 to 500 | < 1000 | < 1000 | B* (an IC50 ratio greater than or equal to 3 fold but lower than 10 fold between the IC50 in the HAP1 MTAP-intact cell line and the HAP1 MTAP-deleted cell line) | < 50 | A (a Ki ratio greater than or equal to 10 fold between the Ki in the presence of SAM and the Ki in the presence of MTA)
COCCN(C)c1cc(C(=O)NC[C@H](O)CN2CCc3cc(OCc4ocnc4C)c(F)cc3C2)cc(NC2CCN(C(C)=O)CC2)n1 [Compound 612, 2-[(1-acetyl-4-piperidyl)amino]-N-[(2S)-3-[7-fluoro-6-[(4-methyloxazol-5-yl)methoxy]-3N-dihydro-1H-isoquinolin-2-yl]-2-hydroxy-propyl]-6-[2-methoxyethyl(methyl)amino]pyridine-4-carboxamide] | 50 to 500 | 50 to 500 | ≥ 10000 | < 1000 | A* (an IC50 ratio greater than or equal to 10 fold between the IC50 in the HAP1 MTAP-intact cell line and the HAP1 MTAP-deleted cell line) | 50 to 500 | A (a Ki ratio greater than or equal to 10 fold between the Ki in the presence of SAM and the Ki in the presence of MTA)
Cc1ncoc1COc1ccc2c(c1)CCN(C[C@@H](O)CNC(=O)c1cc(NC3CCC3)ncc1F)C2 [Compound 614, (S)-2-(cyclobutylamino)-5-fluoro-N-(2-hydroxy-3-(6-((4-methyloxazol-5-yl)methoxy)-3,4-dihydroisoquinolin-2(1H)-yl)propyl)isonicotinamide] | 50 to 500 | 500 to 5000 | 1000 to 10000 | < 1000 | C* (an IC50 ratio of less than 3 fold between the IC50 in the HAP1 MTAP-intact cell line and the HAP1 MTAP-deleted cell line) | 50 to 500 | A (a Ki ratio greater than or equal to 10 fold between the Ki in the presence of SAM and the Ki in the presence of MTA)
